Columns and labels:
Male Long Evans rats = assay: V-maze test (PCP-disrupted visual-spatial working memory); type: in vivo, rat; settings: p.o. 4 h before test
From the text: The V-maze-test is a two-trial short term visual-spatial working memory task based on spontaneous exploration of a new and a familiar arm in a 2-arm maze (Embrechts et al. (2013) “Longitudinal characterization of the TauPS2APP mouse model of Alzheimer's disease in a two trial discrimination task of visuo-spatial recognition memory”, 45th European Brain and Behaviour Society Meeting 6-9 Sep. 2013, Munich, Abstract P202).
Male Long Evans rats (Janvier, France, body weight 280 to 295 g) were group housed in enriched individually ventilated cages and habituated to environmental conditions for 5 days. After acclimatization, animals were single housed for 4 days until testing. During this period animals were handled for 2 min per day and received sham dosing once a day for 3 days prior to the test. The V-maze consisted of two arms (L×W×H: 70×10×30 cm) at a 90° angle to each other to form a V-shaped maze connected by guillotine doors to a center zone. […] The animal's exploration of each arm was automatically quantified using Ethovision XT 7.0 (Noldus, The Netherlands). […] The time spent in the familiar and new arm respectively during the choice session was recorded for 5 min.
Co. No. 1 was evaluated in rats in a series of dose-response studies evaluating doses from 0.16 to 10 mg/kg. […]

[1] = test system: rat hippocampal brain slices; assay: Long-term potentiation in the dentate gyrus of hippocampal brain slices; type: cell-based; settings: 10 μM
Procedure: Recordings of fEPSPs were made from hippocampal brain slices using a multi-electrode array (MEA) biochip, and 3-dimensional-(3D) tip electrodes, according to a standard protocol. These recordings were used to monitor glutamate-mediated synaptic transmission (FIG. 4).
Subsequently, the effects of Co. No. 1 on synaptic function using long-term potentiation (LTP) protocols in the dentate gyms (Goeldner et. al., Neuropharmacology 2013, 64, 337-346) were evaluated.
Small magnitude LTP (110%) was induced using isolated glutamatergic-mediated fEPSP: trains of theta-burst stimulation that are known to induce LTP at these particular synapses were applied (Dinklo et al., J. Pharmacol. Exp. Ther. 2011, 336(2), 560-574). In the presence of 10 μM Co. No. 1, the magnitude of LTP was enhanced by 150% compared to baseline (p=0.005). […] At the end of the experiments, addition of 1 mM kynurenic acid to block glutamatergic neurotransmission, confirmed that the post-synaptic response is mediated by glutamate neurotransmission.

Compound: Cc1cc(-c2cnn3c2C(=O)N(c2ccc(C(F)(F)F)cc2)C[C@@H]3C)ccn1 [compound 1, (7S)-7-Methyl-3-(2-methylpyridin-4-yl)-5-[4-(trifluoromethyl)phenyl]-6,7-dihydropyrazolo[1,5-a]pyrazin-4(5H)-one]
- reversal effect against PCP observed up to the highest dose tested (Male Long Evans rats; PCP 0.75 mg/kg s.c.): ≤ 10 mg/kg
- doses at which PCP-challenged rats showed again a clear preference for the new arm (Male Long Evans rats; PCP 0.75 mg/kg s.c. 30 min prior, doses 0.16 to 10 mg/kg evaluated): ≥ 0.32 mg/kg
- post-theta potentiation (PTP) ([1]; vehicle 120%, p=0.01, 22 slices from 4 SD rats): 160%
- magnitude of LTP compared to baseline ([1]; weak theta-burst stimulation, p=0.005, control LTP 110%): 150%

Reference: patent publication US10106542B2, “Substituted 6,7-dihydropyrazolo[1,5-a]pyrazines as negative allosteric modulators of mGluR2 receptors” (Janssen Pharmaceutica NV, priority 2013, dated 2018)
